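Protocol summary: plate cells (96-well), add compound at 5 concentrations, incubate 48 h, interpolate endpoints linearly. TGI denotes the concentration required for complete inhibition of growth.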
Legend:
Experiment in all cases: NCI anticancer screen, dose series, 48 h
[1] = tested on: MDA-MB-435
[2] = tested on: TK-10 renal
[3] = tested on: U251 CNS
[4] = tested on: SF-539 CNS
[5] = tested on: HT29 colon
[6] = tested on: PC-3 prostate
[7] = tested on: ACHN renal
[8] = tested on: HCT-116 colon
[9] = tested on: SF-295 CNS
[10] = tested on: HOP-92 NSCLC
[11] = tested on: SF-268 CNS
[12] = tested on: COLO 205 colon
[13] = tested on: EKVX NSCLC
[14] = tested on: A498 renal
[15] = tested on: 786-0 renal
[16] = tested on: MDA-MB-231 breast
[17] = tested on: LOX IMVI melanoma
[18] = tested on: OVCAR-4 ovarian
[19] = tested on: UO-31 renal
[20] = tested on: NCI-H460 lung

Compound	TGI [1]	TGI [2]	TGI [3]	TGI [4]	TGI [5]	TGI [6]	TGI [7]	TGI [8]	TGI [9]	TGI [10]	TGI [11]	TGI [12]	TGI [13]	TGI [14]	TGI [15]	TGI [16]	TGI [17]	TGI [18]	TGI [19]	TGI [20]
O=C(NC1CCN(Cc2ccccc2)CC1)c1ccccc1I	32.4 µM	63.6 µM	63.3 µM	63.1 µM	34.8 µM	98.8 µM	> 100 µM	31.1 µM	36.9 µM	92.4 µM	> 100 µM	34.8 µM	> 100 µM	> 100 µM	63.4 µM	41.1 µM	32.6 µM	> 100 µM	30.1 µM	67.7 µM
Cc1ccc2nc(Cl)c(/C=N/N3C(=O)/C(=C/Cc4ccco4)N=C3c3ccccc3)cc2c1	5.29 µM	55.5 µM	> 100 µM	88.4 µM	> 79.4 µM	> 100 µM	> 100 µM	39.3 µM	> 100 µM	66.5 µM	70.6 µM	> 100 µM	98.7 µM	> 100 µM	47.3 µM	> 100 µM	> 69.3 µM	> 100 µM	> 74.7 µM	75.9 µM
O=C(CN1C(=O)c2ccccc2C1=O)OCC1CCCN2CCCCC12 (stereo not drawn)	> 100 µM	> 100 µM	> 100 µM	> 100 µM	> 100 µM	> 100 µM	> 100 µM	> 100 µM	> 100 µM	> 100 µM	> 100 µM	> 100 µM	> 100 µM	> 100 µM	> 100 µM	> 100 µM	> 100 µM	> 100 µM	> 100 µM	> 100 µM
COc1cc(C2c3cc4c(cc3OC(O)C2C)OCO4)cc(OC)c1O (stereo not drawn)	5.22 µM	57.4 µM	62.8 µM	30.6 µM	> 63.3 µM	> 100 µM	> 100 µM	38.3 µM	33.9 µM	> 94.3 µM	> 100 µM	45.8 µM	> 81.9 µM	80.6 µM	> 100 µM	89.3 µM	> 100 µM	> 100 µM	> 96.5 µM	> 70.5 µM
O=C1/C(=C/c2ccc(O)cc2)CCc2ccccc21	52.8 µM	> 95.9 µM	69.7 µM	38.4 µM	45 µM	39.2 µM	69.5 µM	31.6 µM	> 63.7 µM	91.1 µM	37.6 µM	40.5 µM	58.3 µM	44.5 µM	39.1 µM	43.4 µM	49.2 µM	> 74.5 µM	47.9 µM	72.4 µM
Cn1c(=O)c2c(nc3sc4ncccc4c(=O)n32)n(C)c1=O	> 100 µM	> 100 µM	> 100 µM	> 100 µM	> 100 µM	> 100 µM	> 100 µM	> 100 µM	> 100 µM	> 100 µM	> 100 µM	> 100 µM	> 100 µM	> 100 µM	> 100 µM	> 100 µM	> 100 µM	> 100 µM	> 100 µM	> 100 µM
C/C(=C\[C@H]1C[C@@H]([C@@H]2CC[C@]34C[C@]23C=C[C@@H]2[C@@]3(C)CC=C5C[C@@H](c6ccccc6)OC[C@]5(C)[C@@H]3C[C@@H](O)[C@]24C)C(=O)O1)CO	> 100 µM	> 56 µM	> 100 µM	35.1 µM	7.85 µM	> 55.6 µM	34.8 µM	> 100 µM	15.7 µM	28.1 µM	> 70.1 µM	5.11 µM	> 52 µM	5.8 µM	> 100 µM	54.4 µM	> 100 µM	> 62.7 µM	9.54 µM	–
O=C(NO)c1ccc(OCc2ccccc2)cc1	> 100 µM	> 100 µM	> 100 µM	> 100 µM	> 100 µM	> 100 µM	88.8 µM	27.4 µM	> 100 µM	> 100 µM	> 100 µM	77.6 µM	> 100 µM	43.4 µM	55.3 µM	> 100 µM	55.8 µM	75 µM	72.8 µM	> 100 µM
CO[C@H]1C[C@H](O[C@H]2CC[C@]3(C=O)[C@H]4CC[C@]5(C)[C@@H](C6=CC(=O)OC6)CC[C@]5(O)[C@@H]4CC[C@]3(O)C2)O[C@H](C)[C@H]1O[C@@H]1O[C@H](CO[C@@H]2O[C@H](CO)[C@@H](O)[C@H](O)[C@H]2O)[C@@H](O)[C@H](O)[C@H]1O	0.281 µM	0.133 µM	0.202 µM	0.12 µM	0.188 µM	0.33 µM	0.135 µM	0.0911 µM	0.161 µM	0.367 µM	0.164 µM	0.348 µM	0.0631 µM	0.533 µM	0.0781 µM	2.1 µM	0.137 µM	0.144 µM	0.144 µM	0.0425 µM
COc1cc2c(cc1OC)C(=O)/C(=C/c1ccccc1)C2	> 100 µM	> 100 µM	> 100 µM	> 100 µM	> 100 µM	> 100 µM	> 100 µM	> 100 µM	> 100 µM	> 100 µM	> 100 µM	> 100 µM	> 100 µM	7.24 µM	> 100 µM	> 100 µM	> 100 µM	> 100 µM	> 100 µM	> 100 µM
Cc1ccc2cccc(OC(=O)c3cc4c(cc3Cl)Sc3nccn3S4(=O)=O)c2n1	26.1 µM	30.9 µM	16.6 µM	17.2 µM	44.5 µM	14.7 µM	38.7 µM	18.9 µM	29.7 µM	68 µM	> 100 µM	29.4 µM	48 µM	45 µM	43.6 µM	29.3 µM	19.8 µM	25.1 µM	30.6 µM	10.4 µM
c1ccc(-c2cc(-c3cc(-c4ccccc4)no3)on2)cc1	> 100 µM	> 100 µM	> 100 µM	33.4 µM	> 100 µM	> 100 µM	> 100 µM	> 100 µM	> 100 µM	> 100 µM	> 100 µM	> 100 µM	> 100 µM	> 100 µM	> 100 µM	74.8 µM	> 100 µM	85.9 µM	> 100 µM	> 100 µM
O=C(O)C1CCCN1Cc1ccc2c(c1)OCO2 (stereo not drawn)	> 100 µM	> 100 µM	> 100 µM	> 100 µM	> 100 µM	> 100 µM	> 100 µM	> 100 µM	> 100 µM	> 100 µM	> 100 µM	> 100 µM	> 100 µM	> 100 µM	> 100 µM	> 100 µM	> 100 µM	> 100 µM	> 100 µM	> 100 µM
Cc1ccc(OCCn2cc(Nc3ccccc3)c(=O)[nH]c2=O)cc1	> 100 µM	> 100 µM	> 100 µM	> 100 µM	> 100 µM	> 100 µM	> 100 µM	> 100 µM	> 100 µM	> 100 µM	> 100 µM	> 100 µM	> 100 µM	> 100 µM	> 100 µM	> 100 µM	> 100 µM	> 100 µM	> 100 µM	> 100 µM
CC1=C/C(=C(/c2ccc(O)c(C)c2)c2ccccc2C(=O)O)C=CC1=O	33.3 µM	31.1 µM	32.1 µM	35.2 µM	42.8 µM	35.9 µM	32.2 µM	32.8 µM	44.2 µM	34.8 µM	57.1 µM	34.3 µM	36 µM	32.8 µM	33.7 µM	40.4 µM	35.9 µM	33.9 µM	33.6 µM	> 100 µM
Cc1c(C)c(C)c(CSC(=N)N)c(C)c1C	31.3 µM	28.4 µM	26.4 µM	29.1 µM	25.6 µM	24.6 µM	30.1 µM	30 µM	21.7 µM	30.9 µM	36.2 µM	28.1 µM	28 µM	29.8 µM	32.9 µM	27.1 µM	79.2 µM	33.2 µM	20.2 µM	26.8 µM
CC[C@]12C=CCN3CCC4(c5cc(N=Nc6ccc([N+](=O)[O-])cc6)c(OC)cc5N(C)[C@H]4[C@@](O)(C(=O)OC)[C@@H]1OC(C)=O)[C@@H]32 (stereo partly drawn)	31.6 µM	63 µM	27.4 µM	45.8 µM	23.9 µM	46.1 µM	67.8 µM	24.6 µM	30.8 µM	8.62 µM	> 100 µM	42.5 µM	56.9 µM	77.2 µM	25.1 µM	35.9 µM	47.3 µM	> 100 µM	25.9 µM	> 100 µM
CCCCN1C(=O)C[C@H]2[C@@H]3CCc4cc(OCCN5CCCC5)ccc4[C@H]3CC[C@]2(C)C1=O	19.1 µM	28.3 µM	19.4 µM	21.4 µM	5.06 µM	20.4 µM	25.5 µM	16.4 µM	9.63 µM	18.3 µM	28 µM	3.95 µM	30.1 µM	29.4 µM	9.64 µM	15.7 µM	10.8 µM	27.6 µM	15.6 µM	21.3 µM
CC[C@@H]1C[C@@H](O)[C@@H]2[C@H](O)[C@H](O)CN2C1	> 100 µM	> 100 µM	> 100 µM	> 100 µM	> 100 µM	> 100 µM	> 100 µM	> 100 µM	> 100 µM	> 100 µM	> 100 µM	> 100 µM	> 100 µM	> 100 µM	> 100 µM	> 100 µM	> 100 µM	> 100 µM	> 100 µM	> 100 µM
COc1ccc2nc(-c3ccc(O)cc3)cn2c1	> 100 µM	> 100 µM	> 100 µM	> 100 µM	> 100 µM	> 100 µM	> 100 µM	> 100 µM	> 100 µM	> 100 µM	> 100 µM	> 100 µM	> 100 µM	> 100 µM	> 100 µM	> 100 µM	> 100 µM	> 100 µM	> 100 µM	> 100 µM
Clc1ccc(-c2cc(-c3nc4ccccc4[nH]3)no2)cc1	31.6 µM	40 µM	–	74.3 µM	35.3 µM	48.4 µM	36.9 µM	30.6 µM	33 µM	66.7 µM	45.9 µM	41.8 µM	34 µM	47.5 µM	59 µM	35.5 µM	35.5 µM	51.4 µM	34.7 µM	32.6 µM
Nc1nc(Cl)cc(NCC2(CO)CCC(OCc3ccccc3)C2)n1 (stereo not drawn)	39.9 µM	60.5 µM	> 100 µM	> 100 µM	34 µM	33 µM	> 100 µM	> 100 µM	> 100 µM	37 µM	> 100 µM	62.7 µM	59.4 µM	44.4 µM	> 100 µM	42.8 µM	46.4 µM	65.2 µM	99.4 µM	> 100 µM
O=C1NCN(c2ccccc2)C12CCN(CCCSc1ccc(F)cc1)CC2	32.6 µM	99.1 µM	> 100 µM	58.5 µM	19.4 µM	> 100 µM	> 80.5 µM	28.5 µM	> 100 µM	41.6 µM	> 100 µM	3.24 µM	> 100 µM	42.9 µM	> 100 µM	25.2 µM	37.1 µM	> 96.6 µM	> 100 µM	> 100 µM

From PubChem BioAssay (NCI)
